Measurements published in publication PMC6182381, “Population Pharmacokinetics and Exposure-Response Relationships of Naldemedine” (Pharmaceutical Research, 2018).
Where two headings read alike, the source gives them in different places.

Columns and labels:
[1] = system: patients with chronic non-cancer pain and OIC; parameters: method as in PMID 28576452; details: cited from earlier work
[2] = Population PK analysis of plasma naldemedine concentrations (NONMEM, 2-compartment model); type: in vivo, human; details: for AUC: human, plasma, oral
Method: A population PK model was developed with pooled naldemedine concentrations from healthy subjects, patients with chronic non-cancer pain and OIC, and cancer patients with OIC as described in Table I. Blood sampling times for PK analysis in each study are shown in Supplemental Table S1. All studies were performed in accordance with the Declaration of Helsinki, the International Conference on Harmonization (ICH) E6 Guidance for Good Clinical Practice and all other applicable regulatory requirements. Study protocols were approved by the responsible institutional review boards. Written informed consent for each clinical study was obtained from all subjects.
Background data available for subjects were summarized and used as candidate covariates: age, body weight, body mass index (BMI), albumin (ALBU), aspartate aminotransferase (AST) and alanine aminotransferase (ALT), total bilirubin (Tbil), and creatinine clearance (CLcr) at baseline as continuous data, and gender (male, female), race/ethnicity (“White” or “non-White”, “Japanese” or “non-Japanese”, “Hispanic or Latino” or “non-Hispanic or non-Latino”), health status (healthy subjects/ Patients with chronic non-cancer pain and OIC/ Cancer patients with OIC), dosing conditions (dosing in the fasted/fed state, with/without concomitant use of P-gp/CYP3A inhibitor/inducer), and formulation (“solution or suspension”, “phase 1 or 2 tablet”, “phase 3 tablet”) as categorical data. Background data at baseline were obtained from observations prior to or on the first day of dosing, or at screening if this value was not available. Categorical age (<65 years or ≥ 65 years) was also used. CLcr was calculated using the Cockcroft-Gault eq. ([12]). Data from the concomitant treatment period in the phase 1 DDI studies [1202 V9218, 1403V921D, and 1502V921E]), in which co-administrations of P-gp/CYP3A inhibitor/inducer (cyclosporine, rifampin, itraconazole, or fluconazole) with naldemedine were designed as the worst case scenario for each inhibitor/inducer (single dose of cyclosporine 600 mg, rifampin 600 mg for 17 days, itraconazole 200 mg for 7 days, fluconazole 200 mg for 7 days), were excluded from the population PK analysis because they were not clinically relevant to the OIC treatment. Food condition was assumed as fasted in phase 2b studies (1107 V9221 and 1108 V9222), in which the date/time of food intake had not been recorded. Food condition was defined as fasted in cases where naldemedine was administered more than 1 h after the food intake in phase 3 studies (1314 V9231, 1315 V9232, 1331 V9236, 1336 V9238, and 1339 V9239).
The bioanalytical methods for determination of concentrations of naldemedine and its metabolites in human plasma were validated with the lower limit of quantification (LLOQ) being 0.01 ng/ml for naldemedine ([11]). Plasma samples were analyzed after solid phase extraction by a liquid chromatography/mass spectrometry/mass spectrometry (LC/MS/MS) method using the positive ion mode and multiple reaction monitoring. All the analytical methods were validated across the calibration range with respect to selectivity, recovery, accuracy, precision, and stability under a variety of conditions.
The population PK analysis was performed by using the non-linear mixed effect modeling software NONMEM (version 7.3, ICON Development Solutions, US), with PREDPP library and NM-TRAN preprocessor ([13]). To support analyses by NONMEM, Perl-speaks-NONMEM (PsN) (version 4.2) and Xpose (version 4.2.1) were used ([14]). The first order conditional estimation with interaction (FOCE-I) method was used for the analysis.
The PK profiles of naldemedine were examined using conventional compartment disposition models with first order absorption based on the PK in healthy volunteers ([11]). To determine the basic structural PK model for naldemedine, 1-, 2- and 3-compartment models with first order absorption were tested. […]

[3] = 1314V9231_1315V9232 (Phase 3), 0.2 mg
[4] = final model, bootstrap estimates

## CC(C)(NC(=O)C1=C(O)[C@@H]2Oc3c(O)ccc4c3[C@@]23CCN(CC2CC2)[C@H](C4)[C@]3(O)C1)c1nc(-c2ccccc2)no1 [naldemedine]
[1]; Study 1314 V9231 (Phase 3)
  proportion of responders: 47.6%
[1]; Study 1315 V9232 (Phase 3)
  proportion of responders: 52.5%
[2]; 1107V9221 (Phase 2b), 0.1 mg
  Empirical Bayesian-estimated AUCss, Max: 13.49 ng·h/mL
  Empirical Bayesian-estimated AUCss, Min: 7.02 ng·h/mL
[2]; 1107V9221 (Phase 2b), 0.2 mg
  Empirical Bayesian-estimated AUCss, Max: 51.36 ng·h/mL
  Empirical Bayesian-estimated AUCss, Min: 12.66 ng·h/mL
[2]; 1107V9221 (Phase 2b), 0.4 mg
  Empirical Bayesian-estimated AUCss, Max: 74.93 ng·h/mL
  Empirical Bayesian-estimated AUCss, Min: 25.78 ng·h/mL
[2]; [3]
  Empirical Bayesian-estimated AUCss, Max: 92.1 ng·h/mL
  Empirical Bayesian-estimated AUCss, Min: 5.669 ng·h/mL
[2]; 1314V9231_1315V9232, Age 65 -< 75
  Empirical Bayesian-estimated CL/F, Mean: 7.63 L/h
[2]; 1314V9231_1315V9232, Age < 65
  Empirical Bayesian-estimated CL/F, Mean: 8.89 L/h
[2]; 1314V9231_1315V9232, Age >= 65
  Empirical Bayesian-estimated CL/F, Mean: 7.61 L/h
[2]; 1314V9231_1315V9232, Age >= 75
  Empirical Bayesian-estimated CL/F, Mean: 7.54 L/h
[2]; 1314V9231_1315V9232, Asian
  Empirical Bayesian-estimated CL/F, Mean: 13.1 L/h
[2]; 1314V9231_1315V9232, Black
  Empirical Bayesian-estimated CL/F, Mean: 7.51 L/h
[2]; 1314V9231_1315V9232, Female
  Empirical Bayesian-estimated CL/F, Mean: 8.48 L/h
[2]; 1314V9231_1315V9232, Male
  Empirical Bayesian-estimated CL/F, Mean: 9.08 L/h
[2]; 1314V9231_1315V9232, OIC non-Cancer
  Empirical Bayesian-estimated CL/F, Mean: 8.73 L/h
[2]; 1314V9231_1315V9232, White
  Empirical Bayesian-estimated CL/F, Mean: 9.00 L/h
[2]; 1314V9231_1315V9232, non-White
  Empirical Bayesian-estimated CL/F, Mean: 7.59 L/h
[2]; 1314V9231_1315V9232, race Others
  Empirical Bayesian-estimated CL/F, Mean: 6.36 L/h
[2]; 1331V9236 (cancer patients), Age 65 -< 75
  Empirical Bayesian-estimated CL/F, Mean: 7.15 L/h
[2]; 1331V9236 (cancer patients), Age < 65
  Empirical Bayesian-estimated CL/F, Mean: 7.51 L/h
[2]; 1331V9236 (cancer patients), Age >= 65
  Empirical Bayesian-estimated CL/F, Mean: 7.15 L/h
[2]; 1331V9236 (cancer patients), Age >= 75
  Empirical Bayesian-estimated CL/F, Mean: 7.16 L/h
[2]; 1331V9236 (cancer patients), Asian
  Empirical Bayesian-estimated CL/F, Mean: 7.34 L/h
[2]; 1331V9236 (cancer patients), Female
  Empirical Bayesian-estimated CL/F, Mean: 6.54 L/h
[2]; 1331V9236 (cancer patients), Male
  Empirical Bayesian-estimated CL/F, Mean: 7.85 L/h
[2]; 1331V9236 (cancer patients), non-White
  Empirical Bayesian-estimated CL/F, Mean: 7.34 L/h
[2]; 1331V9236, OIC Cancer
  Empirical Bayesian-estimated CL/F, Mean: 7.34 L/h
[2]; base model
  ALAG: 0.195 h
  CL/F: 8.20 L/h
  Inter-individual variability of CL/F: 40.5 CV%
  Inter-individual variability of Ka: 168.2 CV%
  Inter-individual variability of Q/F: 50.5 CV%
  Inter-individual variability of Vc/F: 38.5 CV%
  Inter-individual variability of Vp/F: 37.7 CV%
  Intra-individual variability, proportional: 25.6 CV%
  Ka: 3.81 h⁻¹
  Q/F: 5.02 L/h
  Vc/F: 83.6 L
  Vp/F: 43.2 L
[2]; both sexes, 0.2 mg, reference population, 0.2 mg once daily, read-out: typical AUCss
  AUC: 22 ng·h/mL
[2]; covariates at extreme values
  decrease of population predicted AUCss vs reference population: 25%
  increase of population predicted AUCss vs reference population: 76%
[2]; final model
  ALAG: 0.195 h
  Inter-individual variability of CL/F: 37.9 CV%
  Inter-individual variability of Ka: 161.2 CV%
  Inter-individual variability of Q/F: 46.3 CV%
  Inter-individual variability of Vc/F: 25.3 CV%
  Inter-individual variability of Vp/F: 36.3 CV%
  Intra-individual variability, proportional: 25.7 CV%
  Q/F: 4.77 L/h
  THETA (7), effect of non-Cancer OIC patients on Vc/F: 1.20
  THETA (8), effect of Cancer patients with OIC on Vc/F: 1.27
  THETA (9), effect of fed condition on Vc/F: 1.12
  THETA (11), exponent of Age/52 on Ka: −1.16
  Vp/F: 41.8 L
[2]; [4]
  ALAG, bootstrap median: 0.196 h
  CL/F, THETA (1), bootstrap median: 9.15 L/h
  Inter-individual variability of CL/F, bootstrap median: 38.6 CV%
  Inter-individual variability of Ka, bootstrap median: 161.0 CV%
  Inter-individual variability of Q/F, bootstrap median: 47.5 CV%
  Inter-individual variability of Vc/F, bootstrap median: 25.2 CV%
  Inter-individual variability of Vp/F, bootstrap median: 36.2 CV%
  Intra-individual variability, proportional, bootstrap median: 25.5 CV%
  Ka, THETA (10), bootstrap median: 2.90 h⁻¹
  Q/F, bootstrap median: 4.73 L/h
  THETA (7), non-Cancer on Vc/F, bootstrap median: 1.19
  THETA (8), Cancer on Vc/F, bootstrap median: 1.28
  THETA (9), fed condition on Vc/F, bootstrap median: 1.12
  THETA (11), Age on Ka, bootstrap median: −1.23
  Vc/F, THETA (6), bootstrap median: 76.0 L
  Vp/F, bootstrap median: 41.6
[2]; final model, age 52
  Ka, THETA (10): 2.94 h⁻¹
[2]; final model, healthy subjects, body weight 76 kg, fasted
  Vc/F, THETA (6): 75.9 L
[2]; final model, reference population: 76 kg, non-cancer OIC patients, fasted
  Vc/F: 91.1 L
[2]; final model, reference: 52-year-old, male, White, CLcr 108 ml/min
  CL/F, THETA (1): 9.10 L/h
[2]; 0.1 mg, 1107V9221 (Phase 2b), 0.1 mg, read-out: Empirical Bayesian-estimated AUCss, Geometric Mean
  AUC: 10.2 ng·h/mL
[2]; 0.1 mg, 1107V9221 (Phase 2b), 0.1 mg, read-out: Empirical Bayesian-estimated AUCss, Mean
  AUC: 10.5 ng·h/mL
[2]; 0.1 mg, 1107V9221 (Phase 2b), 0.1 mg, read-out: Empirical Bayesian-estimated AUCss, Median
  AUC: 10.4 ng·h/mL
[2]; 0.2 mg, 1107V9221 (Phase 2b), 0.2 mg, read-out: Empirical Bayesian-estimated AUCss, Geometric Mean
  AUC: 20.3 ng·h/mL
[2]; 0.2 mg, 1107V9221 (Phase 2b), 0.2 mg, read-out: Empirical Bayesian-estimated AUCss, Mean
  AUC: 22.1 ng·h/mL
[2]; 0.2 mg, 1107V9221 (Phase 2b), 0.2 mg, read-out: Empirical Bayesian-estimated AUCss, Median
  AUC: 20.2 ng·h/mL
[2]; 0.2 mg, 1314V9231_1315V9232 (Phase 3), 0.2 mg, read-out: Empirical Bayesian-estimated AUCss, Geometric Mean
  AUC: 25.1 ng·h/mL
[2]; 0.2 mg, 1314V9231_1315V9232 (Phase 3), 0.2 mg, read-out: Empirical Bayesian-estimated AUCss, Mean
  AUC: 27.5 ng·h/mL
[2]; 0.2 mg, 1314V9231_1315V9232 (Phase 3), 0.2 mg, read-out: Empirical Bayesian-estimated AUCss, Median
  AUC: 24.5 ng·h/mL
[2]; 0.4 mg, 1107V9221 (Phase 2b), 0.4 mg, read-out: Empirical Bayesian-estimated AUCss, Geometric Mean
  AUC: 41.6 ng·h/mL
[2]; 0.4 mg, 1107V9221 (Phase 2b), 0.4 mg, read-out: Empirical Bayesian-estimated AUCss, Mean
  AUC: 43.8 ng·h/mL
[2]; 0.4 mg, 1107V9221 (Phase 2b), 0.4 mg, read-out: Empirical Bayesian-estimated AUCss, Median
  AUC: 38.2 ng·h/mL
